Like-named read-outs stand apart in the source and are kept apart here. Bridge positions count the residues as written; N and C are the ends. Square brackets hold non-standard residues; d marks the D form. Ends that are not written are not given here. Peptide text beside a SMILES is read from it.
Tests used:
[1] = biological target: T1, αvβ3 integrin (Homo sapiens, UniProt P05106+P06756); settings: cited from earlier work
T1 construct: expressed in transfected cells; host or cells: K562 human leukemia cells (ATCC) transfected with αvβ3 integrin
Text: Targeting tumor cells or tumor vasculature by RGD-based strategies is a promising approach for delivering anticancer drugs or contrast agents for cancer therapy and diagnosis. RGD-based strategies include RGD peptide or peptidomimetic drugs, RGD-conjugates, and the grafting of the RGD peptide or peptidomimetic, as targeting ligand, at the surfa ... || (+ 4 further places)

[2] = test system: α5β1; settings: integrin expressed on K562 cells; cited from earlier work
Text: (§1) Structure–activity relationship between LXW peptides and αvβ3 LXW analogs are a new category of RGD-containing cyclopeptides that binds specifically to αvβ3 integrin [7, 8]. The LXW analogs were designed and screened using OBOC combinatorial technology. Unlike other RGD cyclopeptide antagonists (i.e., cilengitide), LXW analogs are extended circular structures with a disulfide bond formed between two cysteines in the peptide sequence (cGRGDdXc). D-configuration of two cysteines in these analogs is essential for the antagonistic activity, which can force the cyclopeptide to adopt ...

[3] = test system: αIIbβ3; settings: integrin expressed on K562 cells; cited from earlier work
Text: as §1

[4] = test system: αvβ3; settings: integrin expressed on K562 cells; cited from earlier work
Text: as §1

[5] = test system: αvβ5; settings: integrin expressed on K562 cells; cited from earlier work
Text: as §1

[6] = biological target: T1, αvβ3 integrin; test: Competitive binding assay by flow cytometry: competition with 1 μM biotinylated LXW7 binding to αvβ3-K562 cells
Protocol: To further verify our in silico screening results, we examined the binding of new LXW-analogous peptides to αvβ3 integrin in αvβ3-K562 cells. LXZ2 with DNTL as the X7 residue (Figure 6 left) was arbitrarily chosen and tested through flow cytometry for competing with 1 μM biotinylated LXW7 binding to αvβ3 integrin. […] The IC50 of the peptide inhibiting biotinylated LXW7 binding with K562/αvβ3+ cells was determined (Figure 6 right).
Figure 6 (A) Chemical structure of LXZ2; (B) Competitive binding assay. […] Positive control (cyan), cells were treated with 1μM biotinylated LXW7 and streptavidin-PE successively, and measured with flow cytometry. Negative control (red) represents cells without treatment of biotinylated LXW7. (C) IC50 measurement of LXW7 and LXZ2. The IC50s were determined with competitive binding assay by using a series of concentrations of LXW7 or LXZ2 competing with 1 μM biotinylated LXW7 binding to αvβ3-K562 cells. TEXT PRINTED IN THE PICTURE: (C) LXW7: IC50(μM): 1.53 | (C) LXZ2: IC50(μM): 0.31
The human leukemia cancer cells (K562, ATCC, Manassas, VA, USA) transfected with αvβ3-integrin were grown in the RPMI1640 medium and used for the assay as previously described. […] The samples were washed with 1 mL PBS containing 1% FBS for three times, then incubated with a 1:500 dilution of streptavidin-PE (1 mg/mL) for 30 min on ice followed by a single wash with 1 mL of PBS containing 1% FBS. Finally, the samples were analyzed via flow cytometry (Coulter XL-MCL). To measure the half-maximal inhibitory concentration (IC50) of the peptides, various diluted peptide solutions were mixed with 1.0 μM biotinylated LXW7, then incubated with cells, and followed by streptavidin-PE incubation. The samples were run through flow cytometer and Mean Fluorescence Intensity was decided for each individual sample. The IC50s were calculated from each sample based on the readings.

[7] = test system: αvβ3 integrin; settings: cited from earlier work
Text: In our current study, 20 new LXW analogs were predicted via in silico screening with a high binding affinity to αvβ3 integrin. […] These X7 amino acids can be classified into two groups according to their side-chain structures—cyclic (total 13) and non-cyclic (aliphatic, total 7). […] Among the cyclic amino acids, the aromatic (mainly polycyclic excepted DPH ...

[8] = concentration of peptide required for inhibition of 0.5 µmoL/L biotinylated LXW7 binding to K562/αvβ3+ cells by half, Table 1
[9] = known IC50s from previous in vitro screening, binding to αvβ3 integrin, Table 3
[10] = series of peptide concentrations competing with 1 μM biotinylated LXW7 binding to αvβ3-K562 cells, flow cytometry, streptavidin-PE, PBS, 10% FBS, 1 mM MnCl2, 30 min on ice, Figure 6C, read-out: IC50

Compound: cGRGDd-DNal1-c-NH2 (disulfide) [LXW64, cyclic octapeptide cGRGDd-DNal1-c-NH2 with 3-(1-naphthyl)-D-alanine at X7]
- higher binding affinity than LXW7 ([1]; binding affinity to αvβ3 relative to LXW7): 6 fold
- IC50 [1, 8]: 70 nM
- IC50 [1, 9]: 70 nM
- binding to α5β1 [2]: weak or no binding
- binding to αIIbβ3 [3]: weak or no binding
- binding with αvβ3 [4]: significant positive binding
- binding to αvβ5 [5]: weak or no binding

Compound: N=C(N)NCCC[C@@H]1NC(=O)CNC(=O)[C@H](N)CSSC[C@H](C(N)=O)NC(=O)[C@@H](Cc2c3ccccc3cc3ccccc23)NC(=O)[C@@H](CC(=O)O)NC(=O)[C@H](CC(=O)O)NC(=O)CNC1=O [LXZ2]
- binding affinity compared with LXW7 in competitive binding ([6]; 5 μM peptide competes with 1 μM biotinylated LXW7 binding to αvβ3-K562 cells, flow cytometry, Figure 6B): stronger binding affinity than the first lead—LXW7
- IC50 ([6]; converted, referred to LXW7 in Table 3, read-out: converted IC50): 90 nM
- IC50 [6, 10]: 310 nM

Compound: CGRGDdvC-NH2 (disulfide) (CGRGD[dD][dV]C-NH2; disulfide 1-8; N-terminus assumed; SMILES CC(C)[C@H]1NC(=O)[C@@H](CC(=O)O)NC(=O)[C@H](CC(=O)O)NC(=O)CNC(=O)[C@H](CCCNC(=N)N)NC(=O)CNC(=O)[C@@H](N)CSSC[C@@H](C(N)=O)NC1=O) [LXW11, LXW7 isomer CGRGDdvC-NH2 with two L-cysteines]
- IC50 [1, 8]: > 20000 nM
- IC50 [1, 9]: > 20000 nM

Compound: cilengitide
- IC50 [7]: 250 nM

Compound: CC(C)[C@H]1NC(=O)[C@@H](CC(=O)O)NC(=O)[C@H](CC(=O)O)NC(=O)CNC(=O)[C@H](CCCNC(=N)N)NC(=O)CNC(=O)[C@H](N)CSSC[C@H](C(N)=O)NC1=O [LXW7] (H-[dC]GRGD[dD][dV][dC]-NH2; disulfide 1-8)
- IC50 [6, 10]: 1530 nM

Compound: LXW26: LXW analog with D-Ile as X amino acid (CGRGDDIC; cyclic via D-Cys1-D-Cys8 disulfide; D-Cys1, D-Asp6, D-Ile7, D-Cys8; C-terminal amide (template cGRGDdXc-NH2, X = D-Ile))
- IC50 [1, 9]: 1840 nM

Source: publication PMC7246635, “Structure–Activity Relationship of RGD-Containing Cyclic Octapeptide and αvβ3 Integrin Allows for Rapid Identification of a New Peptide Antagonist” (International Journal of Molecular Sciences, 2020)
